# In patent US20070179121A1, “Method of treating pediatric patients with corticosteroids” (priority 2006, published 2007):
# Legend:
# Assay type in all cases: in vivo, human (pediatric patients)
# [1] = Efficacy: investigator rating of atopic dermatitis severity; settings: for Patients who continued to show an improvement of clear or almost clear compared to Baseline: 2-week follow-up visit
# Description: (§1) Patients who met the inclusion/exclusion criteria were randomized to receive topical fluocinonide either qd or bid. Patients/guardians were instructed to apply a thin layer of the study product to all treatable areas once or twice daily for 14 days. If the areas to be treated were hairy, patients/guardians were instructed to part the hair to allow direct contact between the study product and the lesion. Patients/guardians were also instructed not to apply study product to lesions of the face, groin, perianal area, and axillae. At the end of Weeks 1, 2, and 4, patients returned to the study site in order for the investigator to perform designated evaluations, review treatment compliance and concomitant therapy, and to collect information regarding adverse events.
# Efficacy was assessed by observing the change in the severity of atopic dermatitis from Baseline to Week 2 and Week 4. A disease exacerbation requiring more aggressive treatment than previously used was considered an adverse event.
# The sole efficacy variable in the study was an investigator rating of skin disease severity performed at Screening, at end of treatment, and at a follow-up visit 4 weeks after the start of study treatment. Fluocinonide administered either qd or bid appears to be effective against atopic dermatitis in children aged 3 months to 17 years. In each of the 4 cohorts of this study, more than 90% of the patients in both the fluocinonide qd and bid group were rated by the investigator as showing an improvement in their disease status or as clear or almost clear of disease at the end of the treatment period. The qd regimen appeared to be as effective as the bid regimen across all age groups.
# [2] = Treatment-emergent adverse events
# Description: as §1
# Adverse events were coded using MedDRA terminology (a standard dictionary of terms used to clarify adverse events) and were described according to their intensity, duration and relationship to the study product.
# [3] = Skin safety evaluations: signs and symptoms of skin atrophy; settings: for Patients who showed new signs of skin atrophy at Week 2 not present at Baseline: 5/62
# Description: as §1
# Specific skin safety evaluations were performed at each study visit with regard to all treated lesions by noting the presence or absence of the following 8 signs and symptoms of skin atrophy: telangiectasia, transparency, loss of elasticity, loss of normal skin markings, thinning, striae, pigmentation changes, and bruising.
smiles,measurement,setting,value
"CC(=O)OCC(=O)[C@@]12OC(C)(C)O[C@@H]1C[C@H]1[C@@H]3C[C@H](F)C4=CC(=O)C=C[C@]4(C)[C@@]3(F)[C@@H](O)C[C@@]12C [Fluocinonide, pregna-1,4-diene-3,20-dione,21-(acetyloxy)-6,9-difluoro-11-hydroxy-16, 17-[(1-methylethylidene)bis(oxy)]-,(6α., 11β,16α)-]",Patients who continued to show an improvement of clear or almost clear compared to Baseline,[1]; each dosage group in Cohort 1 and Cohort 3,> 80%
same,Patients who continued to show an improvement of clear or almost clear compared to Baseline,[1]; each dosage group in Cohort 2,> 70%
same,Patients who continued to show an improvement of clear or almost clear compared to Baseline,[1]; each dosage group in Cohort 4,> 90%
same,Patients rated as showing an improvement in disease status or as clear or almost clear of disease,"[1]; end of treatment period vs Baseline, Cohort 1 and Cohort 2, bid",> 90%
same,Patients rated as showing an improvement in disease status or as clear or almost clear of disease,"[1]; end of treatment period vs Baseline, Cohort 1 and Cohort 2, qd",all of the patients
same,Patients rated as showing an improvement in disease status or as clear or almost clear of disease,"[1]; end of treatment period, Cohorts 3 and 4, both qd and bid groups",> 90%
same,Patients rated as showing an improvement in disease status or as clear or almost clear of disease,"[1]; end of treatment period, each of the 4 cohorts, both qd and bid group",more than 90%
same,Burning Sensation NOS,"[2]; Cohort 1, bid",2 (11.8) Number (%)
same,Dermatitis diaper,"[2]; Cohort 1, bid",0 (0) Number (%)
same,Folliculitis,"[2]; Cohort 1, bid",1 (5.9) Number (%)
same,Gastroenteritis NOS,"[2]; Cohort 1, bid",0 (0) Number (%)
same,Headache,"[2]; Cohort 1, bid",3 (17.6) Number (%)
same,Pain NOS,"[2]; Cohort 1, bid",2 (11.8) Number (%)
same,Pyrexia,"[2]; Cohort 1, bid",0 (0) Number (%)
same,Total no. of patients with AEs,"[2]; Cohort 1, bid",9 (52.9) Number (%)
same,Upper respiratory tract infection,"[2]; Cohort 1, bid",0 (0) Number (%)
same,Burning Sensation NOS,"[2]; Cohort 1, qd",0 (0) Number (%)
same,Dermatitis diaper,"[2]; Cohort 1, qd",0 (0) Number (%)
same,Folliculitis,"[2]; Cohort 1, qd",2 (12.5) Number (%)
same,Gastroenteritis NOS,"[2]; Cohort 1, qd",0 (0) Number (%)
same,Headache,"[2]; Cohort 1, qd",1 (6.3) Number (%)
same,Pain NOS,"[2]; Cohort 1, qd",0 (0) Number (%)
same,Pyrexia,"[2]; Cohort 1, qd",0 (0) Number (%)
same,Total no. of patients with AEs,"[2]; Cohort 1, qd",6 (37.5) Number (%)
same,Upper respiratory tract infection,"[2]; Cohort 1, qd",0 (0) Number (%)
same,Burning Sensation NOS,"[2]; Cohort 2, bid",0 (0) Number (%)
same,Dermatitis diaper,"[2]; Cohort 2, bid",0 (0) Number (%)
same,Folliculitis,"[2]; Cohort 2, bid",0 (0) Number (%)
same,Gastroenteritis NOS,"[2]; Cohort 2, bid",0 (0) Number (%)
same,Headache,"[2]; Cohort 2, bid",0 (0) Number (%)
same,Pain NOS,"[2]; Cohort 2, bid",0 (0) Number (%)
same,Pyrexia,"[2]; Cohort 2, bid",0 (0) Number (%)
same,Total no. of patients with AEs,"[2]; Cohort 2, bid",6 (37.5) Number (%)
same,Upper respiratory tract infection,"[2]; Cohort 2, bid",1 (6.3) Number (%)
same,Burning Sensation NOS,"[2]; Cohort 2, qd",0 (0) Number (%)
same,Dermatitis diaper,"[2]; Cohort 2, qd",0 (0) Number (%)
same,Folliculitis,"[2]; Cohort 2, qd",1 (6.3) Number (%)
same,Gastroenteritis NOS,"[2]; Cohort 2, qd",0 (0) Number (%)
same,Headache,"[2]; Cohort 2, qd",0 (0) Number (%)
same,Pain NOS,"[2]; Cohort 2, qd",1 (6.3) Number (%)
same,Pyrexia,"[2]; Cohort 2, qd",0 (0) Number (%)
same,Total no. of patients with AEs,"[2]; Cohort 2, qd",4 (25.0) Number (%)
same,Upper respiratory tract infection,"[2]; Cohort 2, qd",0 (0) Number (%)
same,Burning Sensation NOS,"[2]; Cohort 3, bid",0 (0) Number (%)
same,Dermatitis diaper,"[2]; Cohort 3, bid",0 (0) Number (%)
same,Folliculitis,"[2]; Cohort 3, bid",0 (0) Number (%)
same,Gastroenteritis NOS,"[2]; Cohort 3, bid",0 (0) Number (%)
same,Headache,"[2]; Cohort 3, bid",0 (0) Number (%)
same,Pain NOS,"[2]; Cohort 3, bid",0 (0) Number (%)
same,Pyrexia,"[2]; Cohort 3, bid",0 (0) Number (%)
same,Total no. of patients with AEs,"[2]; Cohort 3, bid",2 (13.3) Number (%)
same,Upper respiratory tract infection,"[2]; Cohort 3, bid",0 (0) Number (%)
same,Burning Sensation NOS,"[2]; Cohort 3, qd",0 (0) Number (%)
same,Dermatitis diaper,"[2]; Cohort 3, qd",0 (0) Number (%)
same,Folliculitis,"[2]; Cohort 3, qd",0 (0) Number (%)
same,Gastroenteritis NOS,"[2]; Cohort 3, qd",0 (0) Number (%)
same,Headache,"[2]; Cohort 3, qd",0 (0) Number (%)
same,Pain NOS,"[2]; Cohort 3, qd",0 (0) Number (%)
same,Pyrexia,"[2]; Cohort 3, qd",0 (0) Number (%)
same,Total no. of patients with AEs,"[2]; Cohort 3, qd",3 (20) Number (%)
same,Upper respiratory tract infection,"[2]; Cohort 3, qd",0 (0) Number (%)
same,Burning Sensation NOS,"[2]; Cohort 4, bid",0 (0) Number (%)
same,Dermatitis diaper,"[2]; Cohort 4, bid",0 (0) Number (%)
same,Folliculitis,"[2]; Cohort 4, bid",0 (0) Number (%)
same,Gastroenteritis NOS,"[2]; Cohort 4, bid",0 (0) Number (%)
same,Headache,"[2]; Cohort 4, bid",0 (0) Number (%)
same,Pain NOS,"[2]; Cohort 4, bid",0 (0) Number (%)
same,Pyrexia,"[2]; Cohort 4, bid",2 (13.3) Number (%)
same,Total no. of patients with AEs,"[2]; Cohort 4, bid",7 (46.7) Number (%)
same,Upper respiratory tract infection,"[2]; Cohort 4, bid",1 (6.7) Number (%)
same,Burning Sensation NOS,"[2]; Cohort 4, qd",0 (0) Number (%)
same,Dermatitis diaper,"[2]; Cohort 4, qd",2 (12.5) Number (%)
same,Folliculitis,"[2]; Cohort 4, qd",0 (0) Number (%)
same,Gastroenteritis NOS,"[2]; Cohort 4, qd",2 (12.5) Number (%)
same,Headache,"[2]; Cohort 4, qd",0 (0) Number (%)
same,Pain NOS,"[2]; Cohort 4, qd",0 (0) Number (%)
same,Pyrexia,"[2]; Cohort 4, qd",2 (12.5) Number (%)
same,Total no. of patients with AEs,"[2]; Cohort 4, qd",8 (50.0) Number (%)
same,Upper respiratory tract infection,"[2]; Cohort 4, qd",2 (12.5) Number (%)
same,Patients who reported at least one treatment-emergent adverse event (TEAE),"[2]; all treated patients, 45 of 126",35.7%
same,Deaths or other serious adverse events,[2]; whole study,No deaths or other serious adverse events
same,Number (%) of patients who showed new signs at Week 2 not present at Baseline,"[3]; Cohort 1 (12-<18), bid",2 (12.5) Number (%)
same,Number (%) of patients who showed new signs at Week 2 not present at Baseline,"[3]; Cohort 1 (12-<18), qd",2 (13.3) Number (%)
same,Number (%) of patients who showed new signs at Week 2 not present at Baseline,"[3]; Cohort 2 (6-<12), bid",1 (6.3) Number (%)
same,Number (%) of patients who showed new signs at Week 2 not present at Baseline,"[3]; Cohort 2 (6-<12), qd",0 Number (%)
same,Number (%) of patients who showed new signs at Week 2 not present at Baseline,"[3]; Cohort 3 (2-<6), bid",0 Number (%)
same,Number (%) of patients who showed new signs at Week 2 not present at Baseline,"[3]; Cohort 3 (2-<6), qd",1 (6.7) Number (%)
same,Number (%) of patients who showed new signs at Week 2 not present at Baseline,"[3]; Cohort 4 (3 months to <2 year), bid",2 (13.3) Number (%)
same,Number (%) of patients who showed new signs at Week 2 not present at Baseline,"[3]; Cohort 4 (3 months to <2 year), qd",2 (12.5) Number (%)
same,Patients who showed new signs of skin atrophy at Week 2 not present at Baseline,[3]; bid treatment group overall,8.1%
same,Patients who showed new signs of skin atrophy at Week 2 not present at Baseline,[3]; qd treatment group overall,8.1%
